Assay results reported in US11938122B2, “5-[[4-[2-[5-(1-hydroxyethyl)pyridin-2-yl]ethoxy]phenyl]methyl]-1,3- thiazolidine-2,4-dione for treating nonalcoholic fatty liver disease” (Minoryx Therapeutics S.L., priority 2016, dated 2024).
pIC50, pKi: −log10 of the molar value. Like-named read-outs stand apart in the source and are kept apart here.

How the values were obtained:
CYP2B6 = test: CYP induction in cryopreserved human hepatocytes; type: in vitro ADME; conditions: 50 μM, similar assay
CYP3A4 = test: CYP induction in cryopreserved human hepatocytes; type: in vitro ADME; conditions: 10 μM, similar assay
bladder urothelium = test: Bladder epithelium hyperplasia in rat tissue; type: in vivo; conditions: treated rats; pioglitazone 14.5 and 145 mg/Kg/day, MIN-102 25, 100 and 150 mg/Kg/day
2C8 = biological target: T1, 2C8 (Homo sapiens, UniProt P10632); conditions: Sahi et al.; cited from earlier work
T1 sequence (P10632 1-490): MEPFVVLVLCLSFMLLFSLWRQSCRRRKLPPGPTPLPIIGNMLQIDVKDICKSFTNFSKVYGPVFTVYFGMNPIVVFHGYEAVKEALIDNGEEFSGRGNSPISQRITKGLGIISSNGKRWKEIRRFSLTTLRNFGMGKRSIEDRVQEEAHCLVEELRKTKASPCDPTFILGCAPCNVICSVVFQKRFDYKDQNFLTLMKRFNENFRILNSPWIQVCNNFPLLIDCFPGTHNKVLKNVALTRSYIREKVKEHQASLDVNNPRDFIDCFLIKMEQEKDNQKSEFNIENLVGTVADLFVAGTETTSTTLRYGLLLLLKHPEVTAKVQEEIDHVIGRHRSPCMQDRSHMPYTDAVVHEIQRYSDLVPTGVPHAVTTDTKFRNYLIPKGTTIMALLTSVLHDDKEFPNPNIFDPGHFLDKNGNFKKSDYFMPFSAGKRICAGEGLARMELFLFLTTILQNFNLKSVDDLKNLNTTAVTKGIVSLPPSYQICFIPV

[1] = cited from earlier work; for AUC0-∞ mean: healthy subjects, single oral dose 45 mg
[2] = test system: diabetic preclinical models; conditions: compared with pioglitazone, literature; cited from earlier work
[3] = Eckland et al., Christensen et al.

Row | Structure (SMILES) | induction in CYPB6 (CYP2B6) [fold] | induction in CYP3A4 (CYP3A4) [fold] | bladder epithelium hyperplasia (bladder urothelium) | pIC50 (2C8) | pKi (2C8) | range in exposure (AUC) [1, 3] | variability (CV %) in clearance [1, 3] | AUC0-∞ mean ([1]; study a) [ng·h/mL] | AUC0-∞ mean ([1]; study b) [ng·h/mL] | AUC0-∞ mean ([1]; study c) [ng·h/mL] | pharmacological activity [2]
1 | CCc1ccc(CCOc2ccc(CC3SC(=O)NC3=O)cc2)nc1 (stereo not drawn) [pioglitazone] | 2.35 | 4.79 | only observed in the pioglitazone group | 5.03 | 5.77 | up to 10 fold | 40%-50% | 13854 | 14458 | 14071 | –
2 | CC(=O)c1ccc(CCOc2ccc(CC3SC(=O)NC3=O)cc2)nc1 (stereo not drawn) [M-III, reference compound] | – | – | – | – | – | – | – | – | – | – | less active than pioglitazone
3 | CC(O)c1ccc(CCOc2ccc(CC3SC(=O)NC3=O)cc2)nc1 (stereo not drawn) [(1), 5-[[4-[2-[5-(1-hydroxyethyl)pyridin-2-yl]ethoxy]phenyl]methyl]-1,3-thiazolidine-2,4-dione] | – | – | – | – | – | – | – | – | – | – | less active than pioglitazone
